Reference: patent publication US20120071628A1, “TOPICAL THERAPEUTIC AGENT FOR OPHTHALMIC DISEASES COMPRISING COMPOUND CAPABLE OF BINDING SPECIFICALLY TO DNA SEQUENCE” (NIHON UNIVERSITY, priority 2009, published 2012)

Key:
[1] = test system: nucleus of cells in the cornea; assay: Distribution of FITC-labeled polyamide in the cornea of alkali injury model rats; assay type: in vivo, rat; conditions: 1 hour after administration, 1 μmol/L, 5 μl instilled
Method: The synthesized FITC polyamide was dissolved in 0.1% acetic acid solution, the concentration was adjusted to 1 μmol/L, 5 μl of the solution was dropped on the central part of the cornea of 8 alkali injury model rats at 1 hour after induction of a trauma. Two animals each were euthanized at 1 hour and on 1, 4, and 7 days after instillation of the FITC polyamide. The eyeball was isolated, embedded in the OCT compound (Miles, Elkhart, Ind., USA) in a plastic container for a frozen section sample, frozen with liquid nitrogen, and stored in an ultra-low temperature refrigerator at −80° C. The sample was thinly sliced into a section of 5 μm and observed under a fluorescence microscope (Olympus Corporation).

[2] = test system: double-stranded oligo DNA containing the AP-1 binding site that corresponds to the TGF-β1 promoter; assay: Gel shift assay of PIP binding to target DNA; parameters: species or system rat
Method: For the gel shift assay, a fluorescence-labeled match oligo DNA containing the AP-1 binding site that corresponds to the TGF-β1 promoter was synthesized. Sense and antisense oligo DNA suitable for the test were annealed to prepare a double-stranded oligo DNA. 1 μM DNA was incubated with 50 μM PIP compound at 37° C. for 1 hour, separated by electrophoresis using 20% polyacrylamide gel, and visualized using a fluorescence image analyzer LAS-3000 (Fuji Film, Tokyo, Japan).

[3] = test system: biotin-labeled double-stranded oligo DNA (target DNA, rat TGF-β1 promoter); assay: Biacore assay of binding affinity for target DNA; conditions: surface plasmon resonance
From the text: Biacore assay can measure binding affinity of rTGF-β (GBP1201) PIP for a target DNA in real time.
Biotin-labeled oligo DNA were annealed to form a double strand, and the double strand was immobilized on a sensor chip SA (Biacore, Uppsala, Sweden) on which streptavidin was immobilized beforehand.
Dynamics of interactions of rTGF-β (GBP1201) PIP, mismatch (FIG. 41 [a]) and biotin-labeled oligo DNA were investigated using Biacore 2000 System (Biacore, Uppsala, Sweden). Data was processed according to the protocol recommended by Biacore2000.

rTGF-β1 promoter = assay: Luciferase reporter plasmid assay of rTGF-β1 promoter expression induced by PMA; assay type: cell-based, rat; conditions: luciferase reporter plasmid with rTGF-β1 promoter region
From the text: The reporter gene expression induced by adding PMA was inhibited by adding GBP1201 and GBP1203 but not by the mismatch polyamide.

[4] = test system: alkali burn rat model (cornea); assay: Corneal opacity, ulceration and corneal defect in rats with alkali burn; assay type: in vivo; conditions: 1 μmol/L, 5 μl instilled once daily for 1 week, versus 0.1% aqueous acetic acid control
Method: 8-week-old male Wister rats were prepared and anesthetized with diethyl ether. Then, 5 μl of 0.5 N sodium hydroxide solution was administered […] to adult Wister rats by instilling the central part of the cornea of both eyes or one eye by a common method according to Saika et al. (Am J. Patho., 2005). At 10 seconds after instillation, the alkali liquid was washed off from the cornea surface with 10 ml of phosphate buffer to prepare an alkali burn rat model.
At 1 hour after a trauma due an alkali burn was induced (9.00 am), and 1 μmol/L rTGF-β (GBP1201) PIP compound and 1 μmol/L of a mixture of rMMP9AP1 and rMMP9NFkB in 1:1 (hereinafter, also referred to as rMMP9PIP) dissolved in 5 μl of 0.1% acetic acid hydrate were administered to the rat right eye by dropping in the central part of the cornea at 9.00 am once daily every day for 1 week. As a control, 0.1% aqueous acetic acid solution was administered to the left eye in the same manner as described above. The same experiment was performed in 6 rats. The reason why 0.1% aqueous acetic acid solution was used was that the PIP compound of the present invention was dissolved in this aqueous solution. Furthermore, to prevent the occurrence of an infection, antibiotic eye ointment Tarivid Ophthalmic Ointment 0.3% (Santen Pharmaceutical Co., Ltd.) was administered at 5.00 pm every day. Furthermore, the drug was administered to 2 rats in which an alkali burn was not induced as controls. Rats were observed every day at the time of instillation and application of an eye ointment, and the cornea was observed and photographed every evening. […] By utilizing this property, the corneal injury was evaluated according to the cornea fluorescein test using a FLUORES test paper (Showa Yakuhin Kako Co., Ltd.) that can test the corneal condition.
The cornea was observed until complete reepithelialization was observed. When the fluorescence staining of the cornea was not observed, complete reepithelialization was defined.
Transparency of the cornea was evaluated as follows. […]

TGF-β1 protein = assay: Immunohistochemistry test of rat eyes after corneal injury; assay type: in vivo; conditions: day 1 after alkali injury
Method: At 1 hour and on 1, 4, and 7 days after induction of a corneal injury in rats, the eyeball was isolated and embedded in the OCT compound (Miles, Elkhart, Ind., USA.). The frozen section was sliced into sections having a thickness of 5 μm, and histological and immunohistological analyses were performed. Using rabbit-anti-human Tgf-β1 polyclonal antibody (Yanaihira, Japan, catalog No. Y241) as a primary antibody, the sample was diluted 1000-fold before use. 4 nontrauma corneas as normal controls were used to compare rTGF-β (GBP1201) PIP-treated eyes and mock-treated eyes. To determine the specificity of the primary antibody, a negative control was also included.

| binding to the target DNA (gel shift) ([2]; 1 μM DNA, 50 μM PIP compound, 37° C., 1 hour) | binding to the mismatch polyamide (gel shift (so in the source)) ([2]; gel shift assay) | binding affinity for target DNA relative to the mismatch polyamide [3] [times] | Kd ([3]; target DNA, 0-300 nM) [nM] | reporter gene expression induced by adding PMA (rTGF-β1 promoter) | SMILES | FITC fluorescence in the cornea [1] | healing of corneal opacity and ulceration [4] | healing of corneal defect (severity of corneal defect) ([4]; listed as TGF-β (GBP1201) PIP) | healing of corneal defect (severity of corneal defect) ([4]; listed as rTGF-β (GBP1201) PIP compound) | TGF-β1 immunohistology versus controls (TGF-β1 protein) |
| --- | --- | --- | --- | --- | --- | --- | --- | --- | --- | --- |
|  |  |  |  |  | CN(C)CCCNC(=O)CCNC(=O)c1nc(NC(=O)c2nc(NC(=O)CCNC(=O)c3cc(NC(=O)c4cc(NC(=O)c5nc(NC(=O)CCCNC(=O)c6cc(NC(=O)c7cc(NC(=O)c8nc(NC(=O)CCNC(=O)c9cc(NC(=O)c%10cc(NC(=O)CCNC(=S)Nc%11ccc%12c(c%11)C(=O)OC%12%11c%12ccc(O)cc%12Oc%12cc(O)ccc%12%11)cn%10C)cn9C)cn8C)cn7C)cn6C)cn5C)cn4C)cn3C)cn2C)cn1C [rTGF-β (GBP1201) FITC] | green FITC fluorescence is observed in the corneal epithelium and in the nucleus of interstitial cells in the cornea |  |  |  |  |
| bound specifically to the target DNA | did not bind to the mismatch polyamide | 149 | 5.12 | inhibited | CC(=O)Nc1cc(C(=O)Nc2cc(C(=O)NCCC(=O)Nc3cn(C)c(C(=O)Nc4cc(C(=O)Nc5cc(C(=O)NCCCC(=O)Nc6cn(C)c(C(=O)Nc7cc(C(=O)Nc8cc(C(=O)NCCC(=O)Nc9cn(C)c(C(=O)Nc%10cn(C)c(C(=O)NCCC(=O)NCCCN(C)C)n%10)n9)n(C)c8)n(C)c7)n6)n(C)c5)n(C)c4)n3)n(C)c2)n(C)c1 [rTGF-β (GBP1201)] |  | significantly better than the control | significantly earlier (approximately twice as fast) than the control | significantly better than the control | No immunohistological difference |
